The results in this text go back to ChEMBL document CHEMBL4732160, “Design and synthesis of 7-O-1,2,3-triazole hesperetin derivatives to relieve inflammation of acute liver injury in mice” (Eur J Med Chem, 2021).

Data set [1] has as its system RAW264.7. The experiment in a line: Antiinflammatory activity in mouse RAW264.7 cells assessed as inhibition of LPS-induced ROS production preincubated for 1 hr followed by LPS stimulation and measured after 24 hrs by DCFH-DA staining based flow cytometry. Type of data set: functional, cell-based. The note with it: dose 2.5-10 µM, time 25.0 hrs. In general terms: A flow cytometer gives signals particle by particle.

In data set [2] the test system is Mus musculus. Description: Antiinflammatory activity in CCl4-induced C57BL/6J mouse model of liver injury assessed as reduction in IL6 expression administered daily for 7 days followed by CCl4 addition and measured after 24 hrs by ELISA. The note with it: dose 50-200 mg/kg, time 8.0 day. Type of data set: functional, organism-based. On the technique in general: An ELISA detects its analyte on a solid surface through an enzyme-linked reagent.

The test system of data set [3] is Mus musculus. Description: Antiinflammatory activity in CCl4-induced C57BL/6J mouse model of liver injury assessed as reduction in IL1beta expression administered daily for 7 days followed by CCl4 addition and measured after 24 hrs by ELISA. It counts as functional, organism-based. The note with it: dose 50-200 mg/kg, time 8.0 day.
Data set [4] has as its system RAW264.7. The experiment in a line: Antiinflammatory activity in mouse RAW264.7 cells assessed as inhibition of LPS-induced IL1beta production at 10 uM preincubated for 1 hr followed by LPS stimulation and measured after 22 hrs by ELISA. Type of data set: functional, cell-based. The settings on record: time 23.0 hrs.
In data set [5] the test system is RAW264.7. Description: Antiinflammatory activity in mouse RAW264.7 cells assessed as inhibition of LPS-induced IL6 production at 10 uM preincubated for 1 hr followed by LPS stimulation and measured after 22 hrs by ELISA. It counts as functional, cell-based. The note with it: time 23.0 hrs.
Data set [6] has as its system RAW264.7. Description: Antiinflammatory activity in mouse RAW264.7 cells assessed as inhibition of LPS-induced iNOS expression preincubated for 1 hr followed by LPS stimulation and measured after 24 hrs by Western blot analysis. It counts as functional, cell-based. The settings on record: dose 5-20 µM, time 25.0 hrs. Background: In western blotting, separated proteins are transferred to a membrane and probed.

The test system of data set [7] is Mus musculus. Description: Antiinflammatory activity in CCl4-induced C57BL/6J mouse model of liver injury assessed as reduction in liver damage at 50 to 200 mg/kg administered daily for 7 days followed by CCl4 addition and measured after 24 hrs by H and E staining based microscopic analysis. It counts as functional, organism-based. The note with it: dose 50-200 mg/kg, time 8.0 day.

Data set [8] concerns RAW264.7. Description: Antiinflammatory activity in mouse RAW264.7 cells assessed as inhibition of LPS-induced IL1beta production preincubated for 1 hr followed by LPS stimulation and measured after 22 hrs by ELISA. It counts as functional, cell-based. The note with it: dose 1.25-20 µM, time 23.0 hrs.
In data set [9] the test system is RAW264.7. Description: Antiinflammatory activity in mouse RAW264.7 cells assessed as inhibition of LPS-induced NO production preincubated for 2 hrs followed by LPS stimulation and measured after 24 hrs by Griess method. It counts as functional, cell-based.
Data set [10] deals with Mus musculus. The experiment in a line: Antiinflammatory activity in CCl4-induced C57BL/6J mouse model of liver injury assessed as reduction in TNFalpha expression administered daily for 7 days followed by CCl4 addition and measured after 24 hrs by ELISA. It counts as functional, organism-based. The note with it: dose 50-200 mg/kg, time 8.0 day.
In data set [11] the test system is RAW264.7. Description: Antiinflammatory activity in mouse RAW264.7 cells assessed as inhibition of LPS-induced TNFalpha production preincubated for 1 hr followed by LPS stimulation and measured after 22 hrs by ELISA. It counts as functional, cell-based. The note with it: dose 1.25-20 µM, time 23.0 hrs.
Data set [12] has as its system RAW264.7. Description: Inhibition of LPS-induced NFkappaB activation in mouse RAW264.7 cells assessed as reduction in p65 nuclear translocation preincubated for 1 hr followed by LPS-stimulation and measured after 0.5 hrs by Western blot analysis. It counts as cell-based. The settings on record: dose 5-20 µM, time 1.5 hrs.
Data set [13] in a line: Cytotoxicity against mouse RAW264.7 cells assessed as cell viability at 40 uM measured after 24 hrs by MTT assay relative to control. It counts as cell-based.
The subject of data set [14] is RAW264.7. The experiment in a line: Antiinflammatory activity in mouse RAW264.7 cells assessed as inhibition of LPS-induced TNFalpha production at 10 uM preincubated for 1 hr followed by LPS stimulation and measured after 22 hrs by ELISA. The settings on record: time 23.0 hrs. Type of data set: functional, cell-based.
Data set [15] relates to RAW264.7. The experiment in a line: Antiinflammatory activity in mouse RAW264.7 cells assessed as inhibition of LPS-induced NO production at 10 uM preincubated for 2 hrs followed by LPS stimulation and measured after 24 hrs by Griess method relative to control. It counts as functional. The settings on record: time 26 hrs.
Data set [16] has as its system Mus musculus. Description: Antiinflammatory activity in CCl4-induced C57BL/6J mouse model of liver injury assessed as reduction in ALT level administered daily for 7 days followed by CCl4 addition and measured after 24 hrs. It counts as functional, organism-based. The settings on record: dose 50-200 mg/kg, time 8.0 day.
Data set [17] concerns RAW264.7. The experiment in a line: Cytotoxicity against mouse RAW264.7 cells assessed as reduction in cell viability at 60 uM measured after 24 hrs by MTT assay. It counts as cell-based. The settings on record: raw264.7, 24 h.
Data set [18] relates to RAW264.7. The experiment in a line: Antiinflammatory activity in mouse RAW264.7 cells assessed as inhibition of LPS-induced IL6 production preincubated for 1 hr followed by LPS stimulation and measured after 22 hrs by ELISA. Type of data set: functional, cell-based. The note with it: dose 1.25-20 µM, time 23.0 hrs.
Data set [19] concerns RAW264.7. The experiment in a line: Inhibition of LPS-induced NFkappaB activation in mouse RAW264.7 cells assessed as reduction in IkappaBalpha phosphorylation at 5 to 20 uM preincubated for 1 hr followed by LPS-stimulation and measured after 0.5 hrs by Western blot analysis. Type of data set: cell-based. The settings on record: dose 5-20 µM, time 1.5 hrs.
Data set [20] has as its system RAW264.7. The experiment in a line: Antiinflammatory activity in mouse RAW264.7 cells assessed as inhibition of LPS-induced COX2 expression preincubated for 1 hr followed by LPS stimulation and measured after 24 hrs by Western blot analysis. Type of data set: functional, cell-based. The settings on record: dose 5-20 µM, time 25.0 hrs.

Activity calls are given as the source filed them. The rule behind the calls is not given here.

Broadly, the inhibition is the share of the control response that was lost under treatment. The IC50 is the concentration at which inhibition is half-maximal. A word on the viability: it is a read-out of living cells in per cent, often relative to untreated cells. Turning to `CCCn1cc(COc2cc(O)c3c(c2)O[C@H](c2ccc(OC)c(O)c2)C/C3=N\O)nn1`, the inhibition result with RAW264.7 [1], in the data set with RAW264.7 [6], with RAW264.7 [8], in the data set with RAW264.7 [11], in the data set with RAW264.7 [12] and in the data set with RAW264.7 [18] was “Dose-dependent effect” each time. Further, in the data set with RAW264.7 [20], the inhibition entry is “Dose-dependent effect”. Further, the Activity result is “Dose-dependent effect” in the data set with Mus musculus [2]; “Dose-dependent effect” in the data set with Mus musculus [3]; “Dose-dependent effect” in the data set on Mus musculus [10]; “Dose-dependent effect” in the data set on Mus musculus [16]; “Non-Toxic” in the data set with RAW264.7 [17]. The inhibition entry in the data set with RAW264.7 [4], in the data set with RAW264.7 [5], in the data set on RAW264.7 [14] and with RAW264.7 [19] was “Active” in each case. Besides, in the data set on Mus musculus [7], the result was Active. Moreover, the IC50 with RAW264.7 [9] was found to be 2340 nM. Further, the viability at 24 h, 40 µM in data set [13] stood at 114%. Further, the inhibition at 10 µM with RAW264.7 [15] came to 67.5%.
